Test results: ChEMBL document CHEMBL3868641, “Discovery, characterization and biological evaluation of a novel (R)-4,4-difluoropiperidine scaffold as dopamine receptor 4 (D4R) antagonists” (Bioorg Med Chem Lett, 2016)

What was measured:
[1] = molecular target: D(2) dopamine receptor (Homo sapiens) (UniProt P14416); assay: Displacement of [3H]Spiperone from recombinant human Dopamine D2L receptor expressed in CHO cell membranes at 10 uM after 120 mins relative to control
CHO-K1 [2] = assay: Displacement of [3H] Spiperone from recombinant human Dopamine D4.4 receptor expressed in CHO-K1 cell membranes at 0.1 uM after 120 mins relative to control
[3] = Unbound fraction in human plasma by HPLC/MS based equilibrium dialysis method; type: ADME, cell-free
[4] = Unbound fraction in rat plasma by HPLC/MS based equilibrium dialysis method; type: ADME, cell-free
[5] = Intrinsic clearance in rat liver microsomes by HPLC/MS analysis; type: ADME; conditions: read-out: CLH
[6] = molecular target: D(1A) dopamine receptor (Homo sapiens) (UniProt P21728); assay: Displacement of [3H]SCH-23390 from recombinant human Dopamine D1 receptor expressed in CHO cell membranes at 10 uM after 120 mins relative to control
[7] = Intrinsic clearance in human liver microsomes by HPLC/MS analysis; type: ADME; conditions: read-out: CLH
[8] = Ratio of drug level in brain to plasma in rat at 0.25 mg/kg, iv administered through cassette dosing after 0.25 hrs by LC/MS/MS analysis; type: ADME, organism-based
[9] = Plasma concentration in rat at 0.25 mg/kg, iv administered through cassette dosing after 0.25 hrs by LC/MS/MS analysis; type: ADME, organism-based
[10] = molecular target: D(1B) dopamine receptor (Homo sapiens) (UniProt P21918); assay: Displacement of [3H]SCH-23390 from recombinant human Dopamine D5 receptor expressed in CHO cell membranes at 10 uM after 120 mins relative to control
[11] = molecular target: D(2) dopamine receptor (Homo sapiens) (UniProt P14416); assay: Displacement of [3H]Spiperone from recombinant human Dopamine D2S receptor expressed in CHO cell membranes at 10 uM after 120 mins relative to control
[12] = molecular target: D(3) dopamine receptor (Homo sapiens) (UniProt P35462); assay: Displacement of [3H]Spiperone from recombinant human Dopamine D3 receptor expressed in CHO cell membranes at 10 uM after 120 mins relative to control
[13] = Displacement of [3H]Spiperone from recombinant human Dopamine D4.4 receptor expressed in CHO-K1 cell membranes after 120 mins
[14] = Drug uptake in rat brain at 0.25 mg/kg, iv administered through cassette dosing after 0.25 hrs by LC/MS/MS analysis; type: ADME, organism-based; conditions: brain, read-out: Drug uptake
CHO-K1 [15] = assay: Displacement of [3H] Spiperone from recombinant human Dopamine D4.4 receptor expressed in CHO-K1 cell membranes at 10 nM after 120 mins relative to control

D(3) dopamine receptor (Homo sapiens), sequence (P35462 whole entry): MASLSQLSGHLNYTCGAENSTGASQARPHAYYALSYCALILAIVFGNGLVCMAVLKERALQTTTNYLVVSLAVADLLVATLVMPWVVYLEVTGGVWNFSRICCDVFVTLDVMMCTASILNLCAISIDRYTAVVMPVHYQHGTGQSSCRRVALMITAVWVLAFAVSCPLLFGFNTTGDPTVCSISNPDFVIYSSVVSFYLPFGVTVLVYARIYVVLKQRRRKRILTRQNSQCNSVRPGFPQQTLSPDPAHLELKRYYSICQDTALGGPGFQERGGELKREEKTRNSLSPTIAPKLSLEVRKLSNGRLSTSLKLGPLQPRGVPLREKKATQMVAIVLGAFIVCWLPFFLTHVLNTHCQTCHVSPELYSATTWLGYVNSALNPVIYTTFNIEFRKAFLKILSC
D(2) dopamine receptor (Homo sapiens), sequence (P14416 whole entry): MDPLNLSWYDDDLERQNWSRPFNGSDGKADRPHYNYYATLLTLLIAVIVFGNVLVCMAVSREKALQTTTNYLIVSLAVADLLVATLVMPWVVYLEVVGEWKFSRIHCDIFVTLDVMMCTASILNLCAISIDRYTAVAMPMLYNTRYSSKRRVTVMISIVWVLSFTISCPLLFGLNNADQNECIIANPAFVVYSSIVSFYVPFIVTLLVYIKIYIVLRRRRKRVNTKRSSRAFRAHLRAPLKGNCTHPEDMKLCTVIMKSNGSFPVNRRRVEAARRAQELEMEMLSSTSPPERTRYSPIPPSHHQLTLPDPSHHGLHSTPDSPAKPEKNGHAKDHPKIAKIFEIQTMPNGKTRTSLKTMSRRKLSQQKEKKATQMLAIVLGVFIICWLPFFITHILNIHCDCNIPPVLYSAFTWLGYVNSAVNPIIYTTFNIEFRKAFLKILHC
D(1A) dopamine receptor (Homo sapiens), sequence (P21728 whole entry): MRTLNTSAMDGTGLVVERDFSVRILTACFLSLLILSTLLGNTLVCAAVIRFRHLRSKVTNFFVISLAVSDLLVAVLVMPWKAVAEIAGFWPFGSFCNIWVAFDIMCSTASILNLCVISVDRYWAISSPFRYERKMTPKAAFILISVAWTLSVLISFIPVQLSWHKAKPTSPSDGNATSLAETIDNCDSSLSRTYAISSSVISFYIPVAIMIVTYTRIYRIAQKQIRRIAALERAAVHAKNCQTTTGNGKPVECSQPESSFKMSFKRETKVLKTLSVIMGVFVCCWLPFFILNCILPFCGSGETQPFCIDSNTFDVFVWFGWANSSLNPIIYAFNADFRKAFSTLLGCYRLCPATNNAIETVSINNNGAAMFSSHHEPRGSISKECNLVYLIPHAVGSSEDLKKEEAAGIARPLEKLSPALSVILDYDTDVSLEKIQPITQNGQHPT
D(1B) dopamine receptor (Homo sapiens), sequence (P21918 whole entry): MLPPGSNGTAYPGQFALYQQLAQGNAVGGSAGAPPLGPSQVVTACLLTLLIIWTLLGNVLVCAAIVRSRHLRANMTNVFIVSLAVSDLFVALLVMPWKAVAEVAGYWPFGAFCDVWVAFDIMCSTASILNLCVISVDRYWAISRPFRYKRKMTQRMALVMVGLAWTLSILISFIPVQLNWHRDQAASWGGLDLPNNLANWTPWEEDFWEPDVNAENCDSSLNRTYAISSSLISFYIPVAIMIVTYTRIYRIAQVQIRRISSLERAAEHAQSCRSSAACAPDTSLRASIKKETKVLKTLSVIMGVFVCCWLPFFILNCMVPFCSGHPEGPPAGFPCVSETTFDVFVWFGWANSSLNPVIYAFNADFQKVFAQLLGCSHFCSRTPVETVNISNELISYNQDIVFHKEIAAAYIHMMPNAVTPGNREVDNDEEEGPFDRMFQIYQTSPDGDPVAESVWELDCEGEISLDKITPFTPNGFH

inhibition [1] | fraction unbound [3] | fraction unbound [4] | CLint scaled [5] | inhibition [6] | CLint scaled [7] | Kp at 0.25 h [8] | concentration at 0.25 h [9] | inhibition [10] | inhibition [11] | inhibition [12] | IC50 [13] | concentration at 0.25 h [14] | SMILES | inhibition (CHO-K1 [2]) | Ki [13] | inhibition (CHO-K1 [15])
53% | 0.003 | 0.002 | 1060 mL/min/kg | < 50% | 300 mL/min/kg | 1.1 | 39 ng/mL | < 50% | < 50% | 85% | 18.6 nM | 43.5 ng/g | COc1ccc2c(CN3CCC(F)(F)[C@H](CCc4cccc(F)c4)C3)c[nH]c2c1 | 83% | 5.2 nM | 
51% | 0.001 | 0.003 | 582 mL/min/kg | < 50% | 99 mL/min/kg | 1.3 | 14.9 ng/mL | < 50% | < 50% | < 50% | 21 nM | 19.6 ng/g | Fc1ccc(CC[C@@H]2CN(Cc3c[nH]c4cc(Cl)ccc34)CCC2(F)F)cc1 | 85% | 5.8 nM | 
67% | 0.018 | 0.009 | 957 mL/min/kg | < 30% | 298 mL/min/kg | 3.3 | 9.2 ng/mL | < 30% | < 30% | 52% | 7 nM | 30.3 ng/g | COc1ccc2c(CN3CCC(F)(F)[C@H](CCc4ccc(F)cc4)C3)c[nH]c2c1 |  | 1.9 nM | 63%
53% | 0.004 | 0.011 |  | < 50% |  | 1.9 | 13.2 ng/mL | < 50% | < 50% | 85% | 7.4 nM | 25.5 ng/g | Fc1ccc(CC[C@@H]2CN(Cc3c[nH]c4cc(F)ccc34)CCC2(F)F)cc1 |  | 2.1 nM | 59%
